Measured values from patent US11788147B2, “Markers of triple-negative breast cancer and uses thereof” (Vanderbilt University, priority 2011, dated 2023).
pIC50: −log10 of the molar value. Read-outs that look alike come from different tables or passages of the source.

Key:
[1] = system: mesenchymal-like (M and MSL) TNBC cell lines; assay: Cell proliferation/viability assay (alamarBlue) and IC50 determination; assay type: cell-based, human; conditions: 72 hours
Description: (§1) Cell proliferation/viability assays and IC50 determinations. All cell lines and culture conditions used can be found in Supplemental Methods (Table 5). Short tandem repeat (STR) DNA fingerprinting analysis was performed on all TNBC cell lines used in this study (Cell Line Genetics). […] Breast cancer cell lines and HMECs were seeded (3,000-10,000 cells) in quadruplicate wells in 96-well plates. […] Viability was determined from measuring fluorescent intensity after metabolic reduction of alamarBlue in the presence/absence of the drug after 72 hours. Viability assays were performed in triplicate, and replicates were normalized to untreated wells. […] For analysis of cell-line drug assays, data generated from the different cell lines representative of TNBC subtypes were compared using the nonparametric Mann-Whitney U test. All analyses and graphic representations were performed using Prism software (version 4.0c; GraphPad Software), and values are represented as the mean±SEM.

LAR TNBC cell lines = assay: as above; assay type: cell-based, human; conditions: 72 hours
Description: (§2) Cell proliferation/viability assays and IC50 determinations. All cell lines and culture conditions used can be found in Supplemental Methods (Table 5). Short tandem repeat (STR) DNA fingerprinting analysis was performed on all TNBC cell lines used in this study (Cell Line Genetics). […] Breast cancer cell lines and HMECs were seeded (3,000-10,000 cells) in quadruplicate wells in 96-well plates. […] Medium was then replaced with either fresh medium (control) or medium containing half-log serial dilutions of the following drugs: 0.3-30 μM olaparib (ChemieTek), 0.3-30 μM veliparib (ChemieTek), 1-100 μM bicalutamide (IPR Pharmaceutical), 0.3-30 μM cisplatin (APP Pharmaceutical), 3-300 nM NVP-BEZ235 (Chemdea), 10-1000 nM 17-DMAG (ChemieTek), and 0.1-10 μM dasatinib (LC Laboratories). Viability was determined from measuring fluorescent intensity after metabolic reduction of alamarBlue in the presence/absence of the drug after 72 hours. Viability assays were performed in triplicate, and replicates were normalized to untreated wells. […] For analysis of cell-line drug assays, data generated from the different cell lines representative of TNBC subtypes were compared using the nonparametric Mann-Whitney U test. All analyses and graphic representations were performed using Prism software (version 4.0c; GraphPad Software), and values are represented as the mean±SEM.

[2] = system: basal-like (BL1 and BL2) TNBC cell lines; assay: as above; assay type: cell-based, human
Description: as §2

[3] = system: mesenchymal-like TNBC cell lines; assay: Cell proliferation/viability assay and IC50 determination (Example 3); assay type: cell-based, human; conditions: 72 hours; basal-like, mesenchymal-like and normal cells compared
Description: Cell proliferation/viability assays and IC50 determinations. All cell lines were maintained in culture as previously described herein. Breast cancer cell lines and HMECs were seeded (3,000-10,000 cells) in quadruplicate wells in 96-well plates. Media was then replaced with either fresh media (control) or media containing half-log serial dilutions of the following drugs: Sorafenib, OSi-906, BMS-754807 and PF2341066 purchased from Selleck Chemicals (Houston, TX) Viability was determined from measuring fluorescent intensity after metabolic reduction of Alamar Blue in the presence/absence of drug after 72 hours. Viability assays were performed in triplicate and replicates were normalized to untreated wells. Inhibitory concentration (IC50) values were determined after double-log transformation of dose response curves.

[4] = system: AR-expressing TNBC cell lines; assay: Viability of AR-expressing TNBC cell lines, PI3K inhibitors alone or with bicalutamide (2-D); assay type: cell-based, human; conditions: alone, 72 h
Description: All cell lines were maintained in culture as previously described (JCI ref). Breast cancer cell lines and HMECs were seeded (3,000-10,000 cells) in quadruplicate wells in 96-well plates. […] Viability was determined from measuring fluorescent intensity after metabolic reduction of Alamar Blue in the presence/absence of drug after 72 hours. Viability assays were performed in triplicate and replicates were normalized to untreated wells.

[5] = system: p-AKT, p-S6 and AR in AR-expressing TNBC cell lines; assay: Immunoblot analysis of the PI3K/mTOR pathway and AR; assay type: cell-based, human; conditions: for activated AKT: 24 h or 48 h
Description: Immunoblot analysis was performed on cell lystates from untreated cells or cells treated alone or in combination with CDX, GDC-0941 and GDC-0980 to evaluate attenuation of the PI3K/mTOR pathway. […] Cells were trypsinized, lysed and relative protein expression was determined by Western blot as previously described (JCI reference) with the following antibodies; the AR polyclonal antibody, SC-N20 (Santa Cruz Biotechnology), pS[…]/236 (Cell Signaling #4856), S6 (Cell Signaling #2317), pAKT-5473 (Cell Signaling #9271), AKT (Cell Signaling #9272), PARP (Cell Signaling #9542) and GAPDH (Millipore).

[6] = system: activated caspase 3/7 in AR-positive TNBC cell lines; assay: Caspase 3/7 activity (Caspase-Glo); assay type: cell-based, human; conditions: 48 h; ADR 3 μM, bicalutamide 50 μM, GDC-0941 3 μM, GDC-0980 1 μM
Description: Cell lines were seeded in triplicate in 96-well plates. Media was removed and replaced with media containing vehicle (control) or indicated drugs. After 48 hrs, apoptosis was determined by measuring luciferase from activated caspase 3/7 upon addition of Caspase-Glo reagent (Promega, Madison, WI). Relative levels of caspase activity were normalized to viable cell number determined by metabolic reduction of Alamar blue.

MDA-MB-453 cells = assay: Sub-G1 (sub 2N DNA) fraction by FACs analysis; assay type: cell-based, human
Description: FIGS. 31A-31B: Combined inhibition of AR and PI3K increases apoptotic cell death in AR+TNBC cell lines. (31A) Bar graphs display relative caspase 3/7 activity (RLU) normalized to viable cell number 48 hrs after treatment with vehicle, positive control (3 μM adriamycin, ADR), 50 μM bicalutamide (CDX) and 3 μM GDC-0941 or 1 μM GDC-0980 alone or in combination with CDX. (31B) Histograms show representative cell cycle analysis of MDA-MB-453 cells treated with similar conditions as above. Indicated percentages represent the fraction of hypodiploid DNA (sub-G1), indicative of late stage apoptotic DNA fragmentation.
In addition to caspase activation, the percentage of sub 2N DNA (sub-G1)-containing cells (indicative of late stage apoptotic DNA fragmentation) was quantitated by FACs analysis. […] Therefore, the decreased viability of AR-positive TNBC cell lines treated with a combination of AR and PI3K inhibitors can be, in part, attributed to apoptosis.

[7] = system: CAL-148, MFM-223 and MDA-MB-453 cells; assay: 3-D forced suspension viability assay; assay type: cell-based, human; conditions: increasing doses, alone, 72 h; to a lesser degree than in 2-D
Description: CAL-148, MFM-223 and MDA-MB-453 cells were plated (10,000 cells/well) in quadruplicate into 96-well plates coated with 0.9% agarose diluted in corresponding media. Following 5 d of growth, cells were then treated with increasing half-log concentrations of GDC-0941 (10-3000 nM), GDC0980 (1 nM −300 nM), BKM120 (10 nM-3000 nM) and NVP-BEZ235 (1 nM-300 nM) alone or in combination with 25 μM bicalutamide (CDX) for an additional 72 h, upon which cells were imaged and viability determined by Alamar blue.

[8] = system: CAL-148 and MDA-MB-453 xenograft tumors; assay: Xenograft tumor studies (Example 2); assay type: in vivo, mice; conditions: single agent alone; bicalutamide 100 mg/kg/d, GDC0980 7.5 mg/kg/d, NVP-BEZ235 50 mg/kg/d p.o.
Description: Five-week-old female athymic nude-Foxnlnu mice (Harlan Sprague-Dawley) were injected (s.c.) with either ˜4×10^6 (CAL-148) or ˜10×10^6 (MDA-MB-453) cells suspended in media (200 μL) into each flank using a 22-gauge needle. Once tumors reached a volume of 25-50 mm^3, mice were randomly allocated to treatment or vehicle arms. Treatments included bicalutamide p.o. (100 mg/kg/d), GDC0980 p.o. (7.5 mg/kg/d) in 5% DMSO, 0.5% carboxymethyl cellulose (MCT) or NVP-BEZ235 p.o. (50 mg/kg/d) in 0.5% MCT or the combination of bicalutamide and either GDC-0980 or NVP-BEZ235 according to the above concentrations. Tumor diameters were serially measured at the indicated times with digital calipers and tumor volumes were calculated as width^2×length/2.

TNBC cell lines = assay: Cell proliferation/viability assay (alamarBlue), panel of TNBC cell lines (Example 1); assay type: cell-based, human
Description: as §1

[9] = system: SUM185PE, CAL-148, CAL-51 and SUM159PT xenograft tumors; assay: Xenograft tumor studies (Example 1), PIK3CA-mutant lines; assay type: in vivo, mice; conditions: NVP-BEZ235 per oral 50 mg/kg/d, approximately 3 weeks
Description: Xenograft tumor studies. Five-week-old female athymic nude-Foxnlnu mice (Harlan Sprague-Dawley) were injected (s.c.) with either approximately 5×10^6 (CAL-51, HCC1806, MDA-MB-468, and SUM185PE) or approximately 10×10^6 (CAL-148 and SUM159PT) cells suspended in medium (200 μl) into each flank using a 22-gauge needle. […] Once tumors reached a volume of 25-50 mm^3, mice were randomly allocated to treatment or vehicle arms. Treatments included bicalutamide per oral (100 mg/kg/d), cisplatin i.p. (8 mg/kg/wk), or NVP-BEZ235 per oral (50 mg/kg/d) in 1:9 N-methylpyrolidone: PEG300. Tumor diameters were serially measured at the indicated times with digital calipers, and tumor volumes were calculated as width^2×length/2. Data points reflect the means and SEM for 16 tumors per treatment.

[10] = system: BRCA1-mutant MDA-MB-436 cell line; assay: Cell proliferation/viability assay (alamarBlue) and IC50 determination; assay type: cell-based; conditions: Homo sapiens, 72 hours, viability
Description: as §2

[11] = system: BRCA1-null cell line HCC1937; assay: as above; assay type: cell-based; conditions: Homo sapiens, 72 hours, viability
Description: as §2

[12] = system: BRCA2-mutant cell line HCC1599; assay: as above; assay type: cell-based; conditions: Homo sapiens, 72 hours, viability
Description: as §2

[13] = 72 hours, read-out: average IC50

## CO[C@H]1/C=C\C=C(/C)C(=O)NC2=CC(=O)C(NCCN(C)C)=C(C[C@@H](C)C[C@H](OC)[C@H](O)[C@@H](C)/C=C(\C)[C@@H]1OC(N)=O)C2=O [17-DMAG, 17-dimethylaminoethylamino-17-demethoxy-geldanamycin]
[1]; mesenchymal-like cell lines
  pIC50: 6.93
LAR TNBC cell lines; LAR cell lines
  pIC50: 7.80
[2]; [13]
  pIC50: 7.09

## C[C@@]1(C(=O)Nc2ccc(F)nc2)CCCN1c1nc(Nc2cc(C3CC3)n[nH]2)c2cccn2n1 [BMS-754807]
[3]
  viability (half-maximal inhibitory concentration) across TNBC subtypes: selectively inhibits viability of mesenchymal-like TNBC cell lines

## CS(=O)(=O)N1CCN(Cc2cc3nc(-c4cccc5[nH]ncc45)nc(N4CCOCC4)c3s2)CC1 [GDC-0941]
[4]
  viability, single agent: displayed efficacy
[5]
  activated AKT: decreased activated AKT
[6]
  caspase 3/7 activation: caused caspase activation
MDA-MB-453 cells; 48 h, alone
  sub-G1 fraction: higher sub-G1 fraction
[7]
  cell aggregate size and viability: decreased cell aggregate size and viability

## Cc1c(CN2CCN(C(=O)[C@H](C)O)CC2)sc2c(N3CCOCC3)nc(-c3cnc(N)nc3)nc12 [GDC-0980]
[4]
  viability, single agent: displayed efficacy
[5]
  activated AKT: decreased activated AKT
[5]; alone
  AR levels: decreased AR levels
[5]; compared with GDC-0941
  mTOR activity as measured by levels of phosphorylated S6: more effective at decreasing mTOR activity
[6]
  caspase 3/7 activation: caused caspase activation
MDA-MB-453 cells; 48 h, alone
  sub-G1 fraction: higher sub-G1 fraction
[7]
  cell aggregate size and viability: decreased cell aggregate size and viability
[8]
  tumor growth: significantly decreased tumor growth

## Cn1c(=O)n(-c2ccc(C(C)(C)C#N)cc2)c2c3cc(-c4cnc5ccccc5c4)ccc3ncc21 [NVP-BEZ235]
[1]; Homo sapiens, mesenchymal-like cell lines
  pIC50: 7.36
LAR TNBC cell lines; Homo sapiens, LAR cell lines
  pIC50: 7.43
[2]; [13]
  pIC50: 6.94
[2]; Homo sapiens, 72 h, read-out: average IC50
  pIC50: 6.70
TNBC cell lines; TNBC cell lines with activated PI3K/AKT signaling due to PIK3CA mutations or PTEN deficiency
  sensitivity (viability): highly sensitive
[9]
  xenograft tumor response: partial response or complete
[8]
  tumor growth: significantly decreased tumor growth

## C[C@]1(O)C[C@@H](c2nc(-c3ccc4ccc(-c5ccccc5)nc4c3)c3c(N)nccn32)C1 [OSI-906]
[3]
  viability (half-maximal inhibitory concentration) across TNBC subtypes: selectively inhibits viability of mesenchymal-like TNBC cell lines

## C[C@@H](Oc1cc(-c2cnn(C3CCNCC3)c2)cnc1N)c1c(Cl)ccc(F)c1Cl [PF2341066]
[3]
  viability (half-maximal inhibitory concentration) across TNBC subtypes: selectively inhibits viability of mesenchymal-like TNBC cell lines

## COc1cccc2c1C(=O)c1c(O)c3c(c(O)c1C2=O)C[C@@](O)(C(=O)CO)C[C@@H]3O[C@H]1C[C@H](N)[C@H](O)[C@H](C)O1 [adriamycin]
[6]
  caspase 3/7 activation: robust caspase activation

## CC(O)(CS(=O)(=O)c1ccc(F)cc1)C(=O)Nc1ccc(C#N)c(C(F)(F)F)c1 (centres unmarked) [bicalutamide]
[1]; Homo sapiens, subset of mesenchymal-like cell lines that express low levels of AR (HS578T, BT549, CAL-51, MDA-MB-231)
  pIC50: 3.44
LAR TNBC cell lines; Homo sapiens, LAR lines
  pIC50: 3.64
[2]; Homo sapiens, 72 h, read-out: IC50
  pIC50: < 3.22
TNBC cell lines; Homo sapiens, majority of TNBC cell lines, read-out: IC50 not achieved using the highest dose
  pIC50: < 3.30
MDA-MB-453 cells; 48 h after treatment, increase from 5.25%
  sub-G1 fraction: 18.44%

## Cc1nc(Nc2ncc(C(=O)Nc3c(C)cccc3Cl)s2)cc(N2CCN(CCO)CC2)n1 [dasatinib]
[1]; Homo sapiens, mesenchymal-like subtypes (M and MSL)
  pIC50: 4.66
LAR TNBC cell lines; Homo sapiens, LAR lines
  pIC50: 4.06

## O=C(c1cc(Cc2n[nH]c(=O)c3ccccc23)ccc1F)N1CCN(C(=O)C2CC2)CC1 [olaparib]
[10]
  pIC50: 4.85
[11]
  pIC50: < 4.00
[12]
  pIC50: < 4.00

## CNC(=O)c1cc(Oc2ccc(NC(=O)Nc3ccc(Cl)c(C(F)(F)F)c3)cc2)ccn1 [sorafenib]
[3]
  viability (half-maximal inhibitory concentration) across TNBC subtypes: selectively inhibits viability of mesenchymal-like TNBC cell lines

## C[C@]1(c2nc3c(C(N)=O)cccc3[nH]2)CCCN1 [veliparib]
[10]
  pIC50: 4.74
[11]
  pIC50: 5.40
[12]
  pIC50: < 4.52
